The values that follow come from article PMC11071266, “The putative proton-coupled organic cation antiporter is involved in uptake of triptans into human brain capillary endothelial cells” (Fluids and Barriers of the CNS, 2024).

As a reminder, the fraction unbound is the share of the substance not bound to proteins or other matrix. Low values mean extensive binding, high ones weak binding.

For data set [1], the system named is H^+/OC antiporter. The data set is described as follows: Cellular uptake into hCMEC/D3 cells after intra- and extracellular pH manipulation. In kind it is cell-based, human.
For data set [2] the following is noted: pH 7.4; cited from earlier work.
The subject of data set [3] is P-gp. On the set-up: method as in PMID 12814962. The note with it: brain Kp in wild type and mdr1a knockout mice; cited from earlier work.
The nature of data set [4]: in vitro. The note with it: C57, mouse, plasma.
Excerpt: C57 mice were used to prepare blank plasma and brain matrices throughout all binding studies.
Details of data set [5]: method as in PMID 32173558. Conditions: cited from earlier work.
The target in data set [6] is P-gp (Homo sapiens, UniProt P08183). On the set-up: expressed in transfected cells; host or cells: IPEC-J2 (porcine ileum epithelial cell line); method as in PMID 12438524. Conditions: MDR1-MDCKII cell line; cited from earlier work.
Chain of P-gp (Homo sapiens, UniProt P08183) (P08183 whole entry): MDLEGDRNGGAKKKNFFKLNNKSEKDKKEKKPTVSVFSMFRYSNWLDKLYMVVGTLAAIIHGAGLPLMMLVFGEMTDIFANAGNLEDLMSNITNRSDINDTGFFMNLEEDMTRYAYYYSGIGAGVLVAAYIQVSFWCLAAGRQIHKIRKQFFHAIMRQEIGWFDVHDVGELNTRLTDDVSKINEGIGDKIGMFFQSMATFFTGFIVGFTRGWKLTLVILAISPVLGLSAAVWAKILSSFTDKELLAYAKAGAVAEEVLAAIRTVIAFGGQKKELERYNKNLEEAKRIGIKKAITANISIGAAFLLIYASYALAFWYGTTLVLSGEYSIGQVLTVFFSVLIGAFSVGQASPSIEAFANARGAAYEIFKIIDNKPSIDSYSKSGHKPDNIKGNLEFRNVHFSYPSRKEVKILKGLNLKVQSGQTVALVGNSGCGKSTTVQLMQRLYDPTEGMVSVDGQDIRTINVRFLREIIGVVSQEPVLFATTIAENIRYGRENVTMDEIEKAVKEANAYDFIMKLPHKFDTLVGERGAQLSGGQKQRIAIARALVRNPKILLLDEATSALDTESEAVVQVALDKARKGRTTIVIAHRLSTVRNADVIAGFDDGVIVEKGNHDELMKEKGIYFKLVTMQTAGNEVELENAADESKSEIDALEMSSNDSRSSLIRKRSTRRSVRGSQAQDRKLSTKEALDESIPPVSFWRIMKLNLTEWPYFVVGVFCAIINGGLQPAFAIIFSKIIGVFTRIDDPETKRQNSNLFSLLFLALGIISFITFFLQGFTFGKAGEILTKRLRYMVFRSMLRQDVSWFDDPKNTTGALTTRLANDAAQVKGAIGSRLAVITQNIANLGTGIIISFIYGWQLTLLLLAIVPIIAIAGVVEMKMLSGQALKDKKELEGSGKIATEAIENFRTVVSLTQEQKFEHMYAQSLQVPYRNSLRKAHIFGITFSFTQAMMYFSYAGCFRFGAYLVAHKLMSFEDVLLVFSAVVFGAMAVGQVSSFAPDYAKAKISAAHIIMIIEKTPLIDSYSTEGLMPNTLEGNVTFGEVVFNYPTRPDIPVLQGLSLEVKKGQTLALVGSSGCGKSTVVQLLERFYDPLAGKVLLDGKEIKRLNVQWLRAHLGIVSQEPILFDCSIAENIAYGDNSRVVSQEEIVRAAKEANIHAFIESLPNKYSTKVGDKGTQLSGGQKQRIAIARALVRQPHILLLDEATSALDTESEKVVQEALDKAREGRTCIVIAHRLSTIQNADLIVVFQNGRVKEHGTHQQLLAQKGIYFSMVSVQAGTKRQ
A short description of data set [7]: In vivo brain distribution by neuropharmacokinetic assessment at steady state. On the set-up: species or system mice. The note with it: for Kp at 2 h / concentration at 2 h: male, mouse; for Kp at 2 h: brain and plasma.
Description: Male Abcb1a/Abcb1b-eKO1 (P-gp knockout) mice and FVB wild-type counterparts (18–24 g at arrival) were obtained from Shanghai Biomodel Organism Science & Technology Development Co. Ltd (Shanghai, China). […] Animals were housed in pairs in a temperature-controlled environment (20–24 °C) with lighting maintained under a 12-h light–dark cycle. Animals were habituated for at least seven days prior to surgery with free access to food and water.
In vivo experiments were conducted to assess the extent of the BBB transport of eletriptan and to elucidate the involvement of active transport processes. All mice were cannulated in the jugular vein for intravenous drug administration. Following surgery, the animals were allowed to recover for 3 days before administration of test compounds. Eletriptan HBr was dosed in P-gp knockout and wild type mice using a loading dose of 2 mg/kg (as bolus) followed by a 2-h constant rate infusion of 3 mg/kg (1.5 mg/kg/h) dissolved in 0.9% NaCl. […] Throughout all studies a dose volume of 10 mL/kg was applied. Serial blood samples were taken from the saphenous vein during the infusion to verify steady state and at the end of infusion. Terminal blood samples were collected from all animals. Brain samples were prepared by homogenization using ultrasonication as described previously [39] and analyzed together with the plasma samples using LC–MS/MS [39].
The total brain and plasma concentration partition coefficient (Kp) was calculated from Eq. 7.7 Kp=Ctot,brain,ss/Ctot,plasma,ss where Ctot,brain,ss and Ctot,plasma,ss is the total drug concentration at steady state in brain and plasma, respectively.
The unbound brain and plasma partition coefficient (Kp,uu) was derived from dividing the unbound brain concentration with the unbound plasma concentration at the end of infusion for each animal. The Kp,uu was calculated from Eq. 8.8 Kp,uu=Ctot,brain,ss·fu,brain/Ctot,plasma,ss·fu,plasma where fu,brain and fu,plasma is the fraction of unbound drug in the brain and plasma, respectively.

Like-named read-outs stand apart in the source and are kept apart here. Bounds are passed on as bounds.

`CN1CCC[C@@H]1Cc1c[nH]c2ccc(CCS(=O)(=O)c3ccccc3)cc12` [Eletriptan]: the “Cellular uptake after intracellular alkalization” value in data set [1] (acute exposure to 30 mM NH4Cl vs control pH 7.4) is recorded as “decreased”. Also, the “Cellular uptake at extracellular acidification” value in data set [1] (extracellular pH 6.8 vs pH 7.4) is listed as “did not affect”. Besides, the “Cellular uptake at extracellular alkalization” value in data set [1] (extracellular pH 8.2 vs pH 7.4) is “slight decrease”. Also, in data set [1] (hCMEC/D3 cells), the “Proton-gradient dependence of uptake” value was “yes”. The “Cellular uptake after intracellular acidification” value in data set [1] (preexposure to 30 mM NH4Cl followed by media change vs control) was “statistically significant increase”. For the same molecule, in data set [2], the “cLogD pH 7.4” value was 1.1. The P-gp substrate entry in data set [3] is given as “substrates of P-gp”. For the same molecule, the fraction unbound at 1 µM in data set [4] (fu,brain) is 0.083; in data set [4] (fu,plasma), 0.4. In addition, in data set [5], the “Clinically relevant human peak plasma concentrations” value was 94 to 200 ng/mL. Also, in data set [5] (human), the “Clinically relevant plasma concentrations” value is 246 to 523 nM. Moreover, the ER in data set [6] is given as 44.7. In addition, the “Increase of brain uptake (Kp, Kp,uu) in mdr1a/1b knockout vs wild type mice” value in data set [7] (knockout vs wild type) is above 30 fold. The Kp at 2 h came to 6.35 ± 0.91 in data set [7] (Abcb1a/Abcb1b-eKO1 (P-gp knockout), intravenous, mdr1a/1b knockout mice, steady state, read-out: Kp (C,brain/C,plasma)); 1.32 in data set [7] (Abcb1a/Abcb1b-eKO1 (P-gp knockout), intravenous, mdr1a/1b knockout mice, steady state, read-out: Kp,uu (C,brain·fu,brain)/C,plasma·fu,plasma)); 0.17 ± 0.016 in data set [7] (FVB wild-type (eletriptan), C57BL/6N (diphenhydramine), intravenous, wild type mice, steady state, read-out: Kp (C,brain/C,plasma)); 0.04 in data set [7] (FVB wild-type (eletriptan), C57BL/6N (diphenhydramine), intravenous, wild type mice, steady state, read-out: Kp,uu (C,brain·fu,brain)/C,plasma·fu,plasma)). Further, the concentration at 2 h in data set [7] (Abcb1a/Abcb1b-eKO1 (P-gp knockout), brain, intravenous, mdr1a/1b knockout mice, steady state, read-out: C,brain) was 1450 ± 175 ng/mL; in data set [7] (Abcb1a/Abcb1b-eKO1 (P-gp knockout), plasma, iv, mdr1a/1b knockout mice, steady state, 2-h i.v. infusion, read-out: C,plasma), 229 ± 6 ng/mL; in data set [7] (FVB (wild type and Abcb1a/Abcb1b knockout), plasma, intravenous, bolus dose followed by 2-h constant infusion, read-out: Plasma concentrations at steady state) it was 259 ± 30 ng/mL; in data set [7] (FVB wild-type (eletriptan), C57BL/6N (diphenhydramine), brain, intravenous, wild type mice, steady state, read-out: C,brain), 41 ± 5 ng/mL; in data set [7] (FVB wild-type (eletriptan), C57BL/6N (diphenhydramine), plasma, iv, wild type mice, steady state, 2-h i.v. infusion, read-out: C,plasma), 240 ± 18 ng/mL.
